# Measured values as given in the SangsterLogP compilation.
# Residues, ends and D or L forms follow the SMILES beside them. *: point of attachment. Boc = CC(C)(C)OC(=O)*
# Settings: not given
row,SMILES,logP
1,N#CCC#N,-0.5
2,O=[N+]([O-])Nc1ccccn1,-1.02
3,CCCCn1cnc2c(NC(C)=O)ncnc21,0.55
4,N#CCc1ccc([N+](=O)[O-])cc1,1.37
5,c1ccc(-c2cnc(-c3ccccc3)o2)cc1,4.67
6,CCc1ccncc1,1.65
7,N#CCC(=O)c1ccccc1,0.97
8,CN(C)C(=O)c1ccccc1O,0.44
9,FC1(F)C(F)(F)C(F)(F)C(F)(F)C(F)(F)C1(F)F,2.91
10,CCOC(=O)C(C(=O)OCC)=C(C(=O)OCC)C(=O)OCC,2.63
11,N#CNc1ccccc1,1.87
12,Clc1cc(Cl)nc(-c2ccccc2)n1,4.17
13,C=CC1(C)OC(=O)N(c2cc(Cl)cc(Cl)c2)C1=O (centres undefined),3.1
14,CCc1cccc(CC)c1NC(=O)OC,1.99
15,O=C1C=CC(=O)C(Cl)=C1,0.84
16,CCCCSP(=O)(SCCCC)SCCCC,3.23
17,Cc1ccno1,0.45
18,Cn1c(N)nc2cc(C#N)ccc21,1.11
19,CC(C)c1ccccc1N,2.12
20,O=[N+]([O-])c1ccc(O)c(O)c1,1.66
21,CC1(O)CCCCC1,1.33
22,CCCOC,1.21
23,CC(=O)C(C)C,0.84
24,ON=Cc1nnc(-c2ccccc2)o1,2.03
25,N#Cc1ccccc1N,1.4
26,CC(=O)Oc1ccc(N)cc1,0.45
27,COP(=O)(OC)OC(C)=CC(=O)N(C)C,0
28,COc1ccccc1NC(=O)Nc1ccccc1OC,2.98
29,CCOC(=O)NNc1ccccc1,1.22

# Same assay, conditions: pH 1.0
row,SMILES,logD
1,CCC(C)C#N (centres undefined),1.1
2,CCOc1ccc(C(=O)O)cc1OCC,2.37
3,CC(C=CC1=C(C)CCCC1(C)C)=CC=CC(C)=CC(=O)O,6.3
4,O=C(O)c1c(Cl)cccc1Cl,2.23
5,CC1CC(C(=O)O)=C(C(=O)O)C(C)C1 (centres undefined),1.53
6,CC(C)(C)OC(=O)N[C@@H](Cc1ccccc1)C(=O)N[C@@H](Cc1ccc(O)cc1)C(=O)O (Boc-Phe-Tyr-OH),2.79

# Same assay, conditions: pH 3.9
row,SMILES,logD
1,COC(=O)Nc1cccc(OC(=O)Nc2cccc(C)c2)c1,3.59

# Same assay, conditions: pH 4.0
row,SMILES,logD
1,FC(F)(F)C(=NNc1ccc(Cl)c(Cl)c1)C(F)(F)F,5.1
2,O=[N+]([O-])c1ccc(NN=C(C(F)(F)F)C(F)(F)F)c(C(F)(F)F)c1,4.6

# Same assay, conditions: pH 5.0
row,SMILES,logD
1,CCOC(=O)CCl,0.94

# Same assay, conditions: pH 7.0
row,SMILES,logD
1,Nc1nc(=O)n([C@H]2CC[C@@H](CO)O2)cc1I,-0.31
2,CCOC(=O)N[C@H]1CCc2cc(OC)c(OC)c(OC)c2-c2ccc(OC)c(=O)cc21,1.3
3,Clc1ccc(C2(Cn3cncn3)OCC3(CCC4OC4C3)CO2)c(Cl)c1 (centres undefined),1.87
4,Nc1nc(=O)n([C@H]2CC[C@@H](CO)O2)cc1Br,-0.48
5,CC1(C)COC(Cn2cncn2)(c2ccc(-n3ccnc3)cc2Cl)OC1,2.26
6,COc1cccc2c1C(=O)c1c(O)c3c(c(O)c1C2=O)CC(O)(C(=O)CO)CC3OC1CC(O)C(O)C(C)O1 (centres undefined),1.75

# Same assay, conditions: pH 7.4
row,SMILES,logD
1,Cc1ncc([N+](=O)[O-])n1CCNC(=O)OC(C)C,0.88
2,Cc1cc2c3ccccc3nc-2[nH]c1N,2.9
3,CC(C)Cn1c(=O)n(C)c(=O)c2[nH]c(CCN3CCN(C(c4ccc(F)cc4)c4ccc(F)cc4)CC3)nc21,4.16
4,Nc1ccc2nc3ccccn3c2n1,1.38
5,O=[N+]([O-])c1ncn(CC(F)(F)CO)n1,-0.21
6,CCc1ncc([N+](=O)[O-])n1C,0.62
7,c1ccc(COc2cccc3cccnc23)cc1,3.51
8,Nc1ccc(Sc2ccc(N)cc2)cc1,2.18
9,CCCc1ccc([N+](=O)[O-])cc1,3.45
10,Cc1ccc(C=Cc2ncc([N+](=O)[O-])n2CO)cc1,2.25
11,Cn1cc2ccc([N+](=O)[O-])cc2n1,1.76
12,Cc1nc(C)c([N+](=O)[O-])[nH]1,0.43
13,CCOc1cccc2cccnc12,2.25
14,CCc1cccc2cccnc12,2.93
15,CC(C)c1ccc([N+](=O)[O-])cc1,3.45
16,CN(C)c1nc2c3cccnc3ccc2n1C,2.28
17,Cc1cc(C)c2c(c1)C(c1ccccc1)=NCC(=O)N2,2.94
18,CN1C(=O)CN=C(c2ccccc2C(F)(F)F)c2cc([N+](=O)[O-])ccc21,2.45

# Same assay, conditions: pH 9.0
row,SMILES,logD
1,NC(=O)c1nc[nH]c1N,-1.1

# Same assay, conditions: pH 11.0
row,SMILES,logD
1,OCCCOc1cccc(CN2CCCCC2)c1,2.78

# Same assay, conditions: pH 13.0
row,SMILES,logD
1,CCOC(CC)(OCC)OCC,1.97
2,c1ccc(C23CCN(CC2)CC3)cc1,2.54
3,C#CCN,-0.43
4,COc1cccc(OC)c1Cc1cnc(N)nc1N,1.7
5,NC(=O)COc1ccccc1Cc1nc(N)cc(N)n1,-0.34
6,CCN(CC)CCN,0.21
7,N=C(N)c1ccc(N)cc1,-0.49
8,NNc1ccc([N+](=O)[O-])cc1,1.41
9,NCCCN1CCN(CCCN)CC1,-1.43
10,CCOC(OCC)OCC,1.2
11,CC1(C)CCCC(C)(C)N1,2.15
12,CN1CCCNCC1,-0.4
13,Cc1cc(Cc2cnc(N)nc2N)cc(C(C)C)c1N,1.77
14,COc1c(C)ccc(Cc2cnc(N)nc2N)c1C(C)(C)C,3.05
